Measurements reported in PubChem BioAssay AID179 (DTP/NCI, 2004).
Active and inactive are the calls of the source.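 Rule for the calls: active = compounds giving half or more protection of infected cells from virus-caused growth loss, again on retest; inactive = the rest.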

Tested on: CEM cells HIV-1 protection, formazan growth assay
Experiment: NCI AIDS Antiviral Assay
Details: for IC50: measured here: growth of uninfected CEM cells
How it was run: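 Screen of anti-HIV-1 activity in human CEM cells using a formazan-based growth measurement at five drug concentrations. Hits with 50% or greater protection were repeated, and confirmation required reproducible complete protection.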

SMILES	EC50 [µM]	IC50 [µM]	outcome
Cc1ccccc1-n1c(=S)[nH]c2c(sc(=O)n2-c2ccccc2C)c1=O	> 3.8	> 3.8	–
O=C(O)/C=C/C=C/C(=O)O	> 200	> 200	–
CN(C)c1ccc(/C=c2\sc3nnc(-c4cccnc4)n3c2=O)cc1	> 20.9	> 20.9	–
CC(C)(C)NC1=NC(C(F)(F)F)(C(F)(F)F)NC(=O)N1	> 200	70.8	–
CC(C(=O)NCCNC(=O)CCC(=O)N(C)O)C(=O)NCCNC(=O)CCC(=O)N(C)O	> 200	151	–
COc1ccc(C(C(N)=O)N2CCCCC2)cc1 (stereo not given)	> 200	> 200	–
CCCCCNc1nonc1N	> 200	> 200	–
COc1ccc(C(=O)C(C(=O)CCC(=O)Nc2ccc(C)c(C)c2)c2ccc(OC)cc2)cc1 (stereo not given)	> 21.9	> 21.9	–
N#Cc1cccc(N2C(=O)c3ccc(C(=O)c4ccc5c(c4)C(=O)N(c4cccc(C#N)c4)C5=O)cc3C2=O)c1	> 7.24	> 7.24	–
O=C(Nc1c(C(=O)NC2CCCCC2)[nH]c(=O)[nH]c1=O)c1ccc(Cl)cc1	–	–	inactive
COc1cc(C2c3cc4c(cc3CC3COC(=O)N32)OCO4)cc(OC)c1OC (stereo not given)	> 25.1	1.38	–
CCOC(=O)C1NCCc2c1[nH]c1ccccc21 (stereo not given)	> 67.6	44.7	–
O=c1ccc2cc3ccoc3c(OCCOCCOCCOCCOc3c4occc4cc4ccc(=O)oc34)c2o1	> 79.4	10.7	–
C/C=C/CP(=O)(c1ccccc1)c1ccccc1	0.0631	> 200	–
CC[C@@]1(OP(=O)(O)O)C(=O)OCc2c1cc1n(c2=O)Cc2cc3ccccc3nc2-1	> 10	0.0263	–
Cc1ccc2ccc3ccc(C)nc3c2n1.Cc1ccc2ccc3ccc(C)nc3c2n1.O=C1OC(C(O)C[O-])C(O)=C1O.[Cu+]	> 12.6	0.0871	–
CS/C(c1ccccc1)=[N+](\[O-])Cc1ccccc1	> 646	457	–
NNC(=O)c1ccccc1NC(=O)/C(=C/c1ccccc1)NC(=O)c1ccccc1	> 200	87.1	–
CCCN(CCC)C(=S)N/N=C/c1cccc(C)n1	> 200	0.0631	–
COc1cc(C(c2ccccc2)N2C(=O)CC[C@H]2C(=O)O)cc(OC)c1OC (stereo not given in full)	> 200	> 200	–
O=C1CC(NC(=O)C(F)(F)F)c2c(Br)sc(N3CCC(c4ccccc4)CC3)c21 (stereo not given)	> 200	145	–
O=C(C1C(c2ccccc2)N1C(c1ccccc1)c1ccccc1)C1C(c2ccccc2)N1C(c1ccccc1)c1ccccc1 (stereo not given)	> 3.39	> 3.39	–

SMILES	EC50 [µM]	IC50 [µM]	outcome
C/C(CCn1[nH]c(=O)ccc1=O)=N\O	> 1070	> 1070	–
NC(=S)N/N=C(/C(=O)Nc1nc2ccc([N+](=O)[O-])cc2s1)C1C(=O)NC(=S)NC1=O	> 15.5	> 15.5	–
NNC1=N/C(=C\c2ccco2)C(=O)N1	> 200	162	–
COc1ccc(C)c2c1N[C@](C)([C@]1(C)Nc3c(OC)ccc(C)c3C1=O)C2=O	> 100	> 100	–
O=C(O)CC[C@H](NC(=O)c1ccc(-n2nc3ccc(O)cc3nc2=O)cc1)C(=O)O	> 145	> 145	–
Cn1cnc([N+](=O)[O-])c1Sc1ncn[nH]1	> 1100	17.8	–
CC(=O)Oc1ccc2c(c1)nnn2C(C)=O	> 200	> 200	–
O=C1c2ccccc2C(=O)N1CCc1c[nH]c2ccccc12	> 200	> 200	–
O=C1C=C(N2CCCC2)C=C(N2CCCC2)C1	> 155	81.3	–
NC(N)=N/N=C(\c1ccccc1)C(O)c1ccccc1 (stereo not given)	> 200	107	–
COc1cc(N=NN(C)C)c(C(C)c2c3cc(OC)c(OC)cc3cc[n+]2C)cc1OC (stereo not given)	> 200	20.9	–
COC(=O)C1=C(C)N2CCOC2CC1c1ccccc1 (stereo not given)	> 200	135	–
CCCCS(=N)(=O)CCC(N)P(=O)(O)O (stereo not given)	> 200	> 200	–
CC(=O)Nc1c(S(=O)(=O)c2ccccc2)c(C)c(C)n1CCN(C)C	> 200	> 200	–
Oc1ccc(Nc2ccccc2)cc1	> 141	24.5	–
COc1nc(NC2OC(COC(C)=O)C(OC(C)=O)C(OC(C)=O)C2OC(C)=O)c(N=C(C)C(C)=O)c(=O)n1C (stereo not given)	–	–	inactive
COC(=O)C1C2C=CC(C2)C1(C(=O)OC)S(=O)CC12CCC(CC1O)C2(C)C (stereo not given)	> 229	> 229	–
CN(C)Cc1cc(C(=O)/C=C/c2ccc(Cl)c(Cl)c2)cc(CN(C)C)c1O	> 200	2.75	–
COC(=O)C1=C(O)c2cc(OC)c(OC)c(OC)c2C(c2ccc3c(c2)OCO3)[C@@H]1C(=O)OC (stereo not given in full)	–	–	inactive
COc1ccc(C(C#N)NC23CC4CC(CC(C4)C2)C3)cc1OC (stereo not given)	–	–	inactive
O=c1c2ccccc2oc2c(Cl)cc(Cl)cc12	> 490	263	–
COc1ccc(C[C@H](N)C(=O)N2C[C@H](CO)C[C@H](n3ccc(=O)[nH]c3=O)C2)cc1	> 617	> 617	–

SMILES	EC50 [µM]	IC50 [µM]	outcome
S=c1ncc2n[nH]nc2[nH]1	> 200	> 200	–
O=C1CCC2(CC1)Cc1ccccc1C2O (stereo not given)	> 200	> 200	–
N=C(N)SC12CC3CC(CC(C3)C1)C2	> 200	138	–
CNc1ccccc1S(=O)(=O)c1cc(Cl)ccc1OC	151	> 200	–
CCOC(=O)C1(C(=O)OCC)Cc2c([nH]c3ccccc23)CN1C(=O)c1ccccc1	> 22.4	> 22.4	–
O=C(O)c1cc(=O)c2c([nH]c3ccccc32)s1	–	–	inactive
Nc1ncc(Br)c(NCC2(CO)CCC2)n1	> 200	15.8	–
O=C1/C(=C\c2ccccc2)CN(C(=O)CCN2CCCCC2)C/C1=C/c1ccccc1	> 151	0.794	–
CC1=CC(C)(c2c[nH]c3ccccc23)CC(C)(C)c2c1[nH]c1ccccc21 (stereo not given)	–	–	inactive
CC(=O)NC(CCC(=O)c1ccc(Cl)cc1)(C(=O)O)C(=O)O	> 200	> 200	–
O=C1OC(c2ccccc2)=C2CCC3CCCCN1C23 (stereo not given)	> 132	> 132	–
Cc1nn(-c2ccccc2)c2c1N=C(C(=O)O)CC(c1ccccc1)=N2	> 200	91.2	–
CCOP(=O)(OCC)C(C)(CC)NC (stereo not given)	> 200	> 200	–
Cc1ccc(S(=O)(=O)N2CCCC2C(=O)O[C@H]2CC[C@H]3CC=C[C@H]32)cc1 (stereo not given in full)	> 200	20.9	–
COc1cc(CNC(=O)CCCCCCCC/C=C/Br)ccc1O	> 200	21.4	–
O=C1[C@H]2ON(c3ccccc3)C(c3ccc([N+](=O)[O-])cc3)[C@H]2C(=O)N1c1ccc(Cc2ccc(N3C(=O)[C@@H]4ON(c5ccccc5)C(c5ccc([N+](=O)[O-])cc5)[C@@H]4C3=O)cc2)cc1 (stereo not given in full)	> 8.51	> 8.51	–
Cc1cc(NS(=O)(=O)c2ccc(Nc3c4ccccc4nc4ccccc34)cc2)no1	> 200	2	–
Cc1cn(C(CO)OC(CO)CN(O)C2C3CC4CC(C3)CC2C4)c(=O)[nH]c1=O (stereo not given)	> 200	> 200	–
C/C(CC(=O)Nc1ccc(C)cc1C)=N/N=C(N)N	> 191	> 191	–
CC(=O)/C(=C/n1ccc(=O)[nH]c1=S)C(=O)Nc1ccccc1	> 200	> 200	–
CC(=O)OC[C@H]1O[C@@H](O[C@H]2[C@H](OC(C)=O)C=CO[C@@H]2COC(C)=O)C(OC(C)=O)[C@H]2OC(C)(C)O[C@H]21 (stereo not given in full)	> 200	69.2	–
FC(F)(F)/C(=N/Nc1ccccc1)SS/C(=N\Nc1ccccc1)C(F)(F)F	> 200	38	–

SMILES	EC50 [µM]	IC50 [µM]	outcome
C=C1C(=O)O[C@H]2C/C(C=O)=C\[C@H]3O[C@H]3/C(COC(=O)C(C)C)=C/CC12 (stereo not given in full)	> 200	1.62	–
O=C1/C(=C/c2ccc(F)cc2)Cc2ccccc21	> 30.2	> 30.2	–
O=C(c1ccccn1)c1nc(-c2ccc(Cl)c(Cl)c2)nc2ccc(Cl)cc12	–	–	inactive
CCCNC1=C(C(=O)OCC)C(=O)CO1	> 33.9	> 33.9	–
O=[N+]([O-])c1ccc(O)c(/C=N/NC(=S)N2CCCCC2)c1	> 200	2.95	–
C(=C\c1ccc2ccccc2c1Nc1ccccc1)/c1ccccc1	–	–	inactive
O=C1Oc2ccccc2C1C/C(=N\Nc1ccccc1)c1ccccc1O (stereo not given)	> 93.3	79.4	–
N#C/C(=C\n1ccc(=O)[nH]c1=S)c1nc2ccccc2s1	> 200	> 200	–
N#CC1=C(O)NC(O)=C(C#N)C1c1ccc(C2C(C#N)=C(O)NC(O)=C2C#N)cc1	> 631	35.5	–
CNC(=S)SSSC(=S)NC	–	–	inactive
O=C(C#Cc1ccccc1)Nc1ccccc1CC(c1c[nH]c2ccccc12)c1c[nH]c2ccccc12	> 26.3	5.25	–
COc1ccc(O)c2c(=O)c3cc(O)ccc3oc12	> 200	30.2	–
Cc1cc2c3c(c1)CCCN3CCC2	> 200	> 200	–
COC(=O)C(/C(=N/NC(=O)c1ccncc1)C(=O)Nc1ccccc1OC)c1nc2ccc(Cl)cc2[nH]c1=O (stereo not given)	> 91.2	> 91.2	–
CC1(C)N=C(N)N=C(N)N1c1cccc(/C=C(\C#N)c2ccccc2)c1	> 200	4.79	–
CC#N.CC#N.COC(=O)[C@@H]1CCC(=O)[N-]1.COC(=O)[C@@H]1CCC(=O)[N-]1.COC(=O)[C@@H]1CCC(=O)[N-]1.COC(=O)[C@@H]1CCC(=O)[N-]1.[Rh+2].[Rh+2]	> 200	> 200	–
CCSC1=C(C)N(C=NC(C)(C)C)CC1	> 1100	> 1100	–
CCCCCCOc1ccc(C(=O)NOC)cc1	> 200	110	–
CNC(=O)CCCN(C)C(=O)CCCCC(=O)N(C)C	> 200	> 200	–
CC(C)(C)[Si](C)(C)OCC1OC(n2ccc(N)nc2=O)C(O[Si](C)(C)C(C)(C)C)C1O[Si](C)(C)C(C)(C)C (stereo not given)	> 200	10.2	–
O=C1C[C@@H]2[C@@H](C=CC23CC3)N1O	> 1510	> 1510	–
